Source: the supplement of paper PMC11061612

Experiments:
[1] = compound: C1CC(C1)(C(=O)[O-])C(=O)[O-].N.N.[Pt+2] [Carboplatin]; details: max 10 µM
How it was run: (§1)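 Cancer cell lines were seeded in 1536-well plates in 7.5 μl DMEM/F12 or RPMI with 10% FBS, held 24 hours at 37°C and 5% CO2, then dosed for 72 hours (final DMSO typically 0.2%). Viability was read by CellTiter-Glo 2.0 luminescence and scaled between blank-well and DMSO-well means. The single-agent IC50 comes from dose responses fitted to a two-parameter logistic curve with a non-linear mixed effects model.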

[2] = compound: C1CN(CCC1(C(=O)N[C@@H](CCO)C2=CC=C(C=C2)Cl)N)C3=NC=NC4=C3C=CN4 [AZD5363]; details: max 10 µM
How it was run: as §1

[3] = compound: C=CCn1c(=O)c2cnc(Nc3ccc(N4CCN(C)CC4)cc3)nc2n1-c1cccc(C(C)(C)O)n1 [AZD1775]; details: max 3 µM
How it was run: as §1

[4] = compound: CC(=O)Nc1cccc(-n2c(=O)n(C3CC3)c(=O)c3c(Nc4ccc(I)cc4F)n(C)c(=O)c(C)c32)c1 [Trametinib]; details: max 1 µM
How it was run: as §1

[5] = compound: CC(=O)O[C@H]1C(=O)[C@@]2(C)[C@H]([C@H](OC(=O)c3ccccc3)[C@]3(O)C[C@H](OC(=O)[C@H](O)[C@@H](NC(=O)c4ccccc4)c4ccccc4)C(C)=C1C3(C)C)[C@]1(OC(C)=O)CO[C@@H]1C[C@@H]2O [Paclitaxel]; details: max 3 µM
How it was run: as §1

[6] = compound: CC(=O)c1c(C)c2cnc(Nc3ccc(N4CCNCC4)cn3)nc2n(C2CCCC2)c1=O [Palbociclib]; details: max 10 µM
How it was run: as §1

[7] = compound: CC(C)n1c(=O)n(C)c2cnc3cc(F)c(-c4ccc(OCCCN5CCCCC5)nc4)cc3c21 [AZD1390]; details: max 0.3 µM
How it was run: as §1

[8] = compound: CC1(C)CCC(CN2CCN(c3ccc(C(=O)NS(=O)(=O)c4ccc(NCC5CCOCC5)c([N+](=O)[O-])c4)c(Oc4cnc5[nH]ccc5c4)c3)CC2)=C(c2ccc(Cl)cc2)C1 [Venetoclax]; details: max 1 µM
How it was run: as §1

[9] = compound: CC1=C(C(=CC=C1)Cl)NC(=O)C2=CN=C(S2)NC3=CC(=NC(=N3)C)N4CCN(CC4)CCO [Dasatinib]; details: max 2 µM
How it was run: as §1

[10] = compound: CC1=CN2[C@@H](C1)C=NC3=CC(=C(C=C3C2=O)OC)OCCCCCOC4=C(C=C5C(=C4)N=C[C@@H]6CC(=CN6C5=O)C)OC [SG3199]; details: max 0.001 µM
How it was run: as §1

[11] = compound: CCN(CCO)CCCOc1ccc2c(Nc3cc(CC(=O)Nc4cccc(F)c4)[nH]n3)ncnc2c1 [AZD2811]; details: max 1 µM
How it was run: as §1

[12] = compound: CCc1c2c(nc3ccc(O)cc13)-c1cc3c(c(=O)n1C2)COC(=O)[C@]3(O)CC [SN-38]; details: max 0.3 µM
How it was run: as §1

[13] = compound: CN(C)CCCOc1ccc(-c2ccc3ncc4c(c3c2)n(C2CCOCC2)c(=O)n4C)cn1 [AZD0156]; details: max 3 µM
How it was run: as §1

[14] = compound: CN(CC[C@H](CSC1=CC=CC=C1)NC2=C(C=C(C=C2)S(=O)(=O)NC(=O)C3=CC=C(C=C3)N4CCC(CC4)[C@H](C5=CC=CC=C5C6=CC=C(C=C6)Cl)O)S(=O)(=O)C(F)(F)F)CCO [AZD4320]; details: max 1 µM
How it was run: as §1

[15] = compound: COc1cc(Nc2ncc3c(n2)-c2ccc(Cl)cc2C(c2c(F)cccc2OC)=NC3)ccc1C(=O)O [Alisertib]; details: max 10 µM
How it was run: as §1

[16] = compound: COc1cc([C@@H]2c3cc4c(cc3[C@@H](O[C@@H]3O[C@@H]5CO[C@@H](C)O[C@H]5[C@H](O)[C@H]3O)[C@H]3COC(=O)[C@H]23)OCO4)cc(OC)c1O [Etoposide]; details: max 10 µM
How it was run: as §1

[17] = compound: COc1cc2ncnc(Nc3ccc(F)c(Cl)c3)c2cc1OCCCN1CCOCC1 [Gefitinib]; details: max 10 µM
How it was run: as §1

[18] = compound: COc1cccc(OCCCN)c1-c1cc(Nc2cnc(C#N)cn2)n[nH]1 [Prexasertib]; details: max 1 µM
How it was run: as §1

[19] = compound: COc1cccc2c1C(=O)c1c(O)c3c(c(O)c1C2=O)C[C@@](O)(C(=O)CO)C[C@@H]3O[C@H]1C[C@H](N)[C@H](O)[C@H](C)O1 [Doxorubicin]; details: max 1 µM
How it was run: as §1

[20] = compound: COc1nnc2ccc(N3CCC(c4ccc(OCCN5CCN(C)C(=O)[C@H]5C)cc4)CC3)nn12 [AZD5153]; details: max 1 µM
How it was run: as §1

[21] = compound: CS(=O)(=O)CCNCc1ccc(-c2ccc3ncnc(Nc4ccc(OCc5cccc(F)c5)c(Cl)c4)c3c2)o1 [Lapatinib]; details: max 10 µM
How it was run: as §1

[22] = compound: C[C@@H](Nc1cc(F)cc(F)c1)c1cc(C(=O)N(C)C)cc2c(=O)cc(N3CCOCC3)oc12 [AZD8186]; details: max 10 µM
How it was run: as §1

[23] = compound: C[C@@H](Oc1cc(-c2cnn(C3CCNCC3)c2)cnc1N)c1c(Cl)ccc(F)c1Cl [Crizotinib]; details: max 10 µM
How it was run: as §1

[24] = compound: C[C@@H](c1ccc2nccn2c1)n1nnc2ncc(-c3cnn(C)c3)nc21 [Savolitinib]; details: max 1 µM
How it was run: as §1

[25] = compound: C[C@@H]1COCCN1C2=NC(=NC(=C2)C3(CC3)[S@](=N)(=O)C)C4=C5C=CNC5=NC=C4 [AZD6738]; details: max 10 µM
How it was run: as §1

[26] = compound: Cc1c2c(nn1C)CSCc1cc(n(C)n1)CSc1cc(c3ccccc3c1)OCCCc1c(C(=O)O)n(C)c3c-2c(Cl)ccc13 [AZD5991]; details: max 1 µM
How it was run: as §1

[27] = compound: Cc1cc2ncnn2cc1Nc1ncc2c(n1)n(C1CCOCC1)c(=O)n2C [AZD7648]; details: max 10 µM
How it was run: as §1

[28] = compound: Cc1nc(-c2cn3c(n2)-c2ccc(-c4cnn(C(C)(C)C(N)=O)c4)cc2OCC3)n(C(C)C)n1 [Taselisib]; details: max 10 µM
How it was run: as §1

[29] = compound: Cn1cnc2c(F)c(Nc3ccc(Br)cc3Cl)c(C(=O)NOCCO)cc21 [Selumetinib]; details: max 10 µM
How it was run: as §1

[30] = compound: N#Cc1cnc(Nc2cc(NC[C@H]3CNCCO3)c(C(F)(F)F)cn2)cn1 [SRA737]; details: max 10 µM
How it was run: as §1

[31] = compound: NC1(c2ccc(-c3nc4ccn5c(=O)[nH]nc5c4cc3-c3ccccc3)cc2)CCC1 [MK-2206]; details: max 10 µM
How it was run: as §1

[32] = compound: Nc1ccn([C@@H]2O[C@H](CO)[C@@H](O)C2(F)F)c(=O)n1 [Gemcitabine]; details: max 0.3 µM
How it was run: as §1

[33] = compound: O=C(Nc1ccc2[nH]nc(-c3ccncc3)c2c1)[C@@H]1CCN(CC(=O)N2CCN(c3ccc(-c4ncccn4)cc3)CC2)C1; details: max 5 µM
How it was run: as §1

[34] = compound: O=C(c1cc(Cc2n[nH]c(=O)c3ccccc23)ccc1F)N1CCN(C(=O)C2CC2)CC1 [Olaparib]; details: max 10 µM
How it was run: as §1

[35] = compound: O=c1[nH]cc(F)c(=O)[nH]1 [5-Fluorouracil]; details: max 20 µM
How it was run: as §1

Cell Line	IC50, cell viability 72 h [1] [nM]	IC50, cell viability 72 h [2] [nM]	IC50, cell viability 72 h [3] [nM]	IC50, cell viability 72 h [4] [nM]	IC50, cell viability 72 h [5] [nM]	IC50, cell viability 72 h [6] [nM]	IC50, cell viability 72 h [7] [nM]	IC50, cell viability 72 h [8] [nM]	IC50, cell viability 72 h [9] [nM]	IC50, cell viability 72 h [10] [nM]	IC50, cell viability 72 h [11] [nM]	IC50, cell viability 72 h [12] [nM]	IC50, cell viability 72 h [13] [nM]	IC50, cell viability 72 h [14] [nM]	IC50, cell viability 72 h [15] [nM]	IC50, cell viability 72 h [16] [nM]	IC50, cell viability 72 h [17] [nM]	IC50, cell viability 72 h [18] [nM]	IC50, cell viability 72 h [19] [nM]	IC50, cell viability 72 h [20] [nM]	IC50, cell viability 72 h [21] [nM]	IC50, cell viability 72 h [22] [nM]	IC50, cell viability 72 h [23] [nM]	IC50, cell viability 72 h [24] [nM]	IC50, cell viability 72 h [25] [nM]	IC50, cell viability 72 h [26] [nM]	IC50, cell viability 72 h [27] [nM]	IC50, cell viability 72 h [28] [nM]	IC50, cell viability 72 h [29] [nM]	IC50, cell viability 72 h [30] [nM]	IC50, cell viability 72 h [31] [nM]	IC50, cell viability 72 h [32] [nM]	IC50, cell viability 72 h [33] [nM]	IC50, cell viability 72 h [34] [nM]	IC50, cell viability 72 h [35] [nM]
CS1 (Chondrosarcoma)	> 10000	> 10000	2030	> 1000	114	> 10000	> 300	> 1000	> 2000	> 1	> 1000	18.6	> 3000	> 1000	4520	> 10000	> 10000	77.2	641	> 1000	> 10000	> 10000	9480	> 1000	> 10000	> 1000	> 10000	> 10000	> 10000	> 10000	> 10000	> 300	> 5000	> 10000	> 20000
D-283MED (Other Solid Carcinomas)	> 10000	8850	425	> 1000	< 3	> 10000	> 300	> 1000	> 2000	> 1	450	7.3	> 3000	425	547	583	> 10000	11	200	60.8	6250	8400	2730	> 1000	302	> 1000	> 10000	3990	> 10000	869	> 10000	3.45	> 5000	> 10000	7430
